{"source": "patent US11179385B2", "about": "(THE TRUSTEES OF THE UNIVERSITY OF PENNSYLVANIA, priority 2015, dated 2021)", "key": {"[1]": {"system": "melanoma in Tyr::creER, BRAF^ca, Pten^lox/lox mice", "assay": "Topical resiquimod gel on melanoma progression in Tyr::creER, BRAFca, Ptenlox/lox mice", "type": "in vivo, mouse", "text": "FIGS. 3A-3I. […] FIG. 3A) Treatment scheme. FIG. 3B) Representative image of a mouse with control treatment (n=15). […] FIG. 3D) Histology of melanoma in a control mouse. […] FIG. 3E) Histology of melanoma in a treated mouse. […] Bars indicate 6 mm in FIG. 3B and FIG. 3C, 400 μm in FIG. 3D and FIG. 3E and 50 μm in FIG. 3H and FIG. 3I.\nFIGS. 4A-4I. […] FIG. 4A) Treatment scheme. […] All measurement was compared to the control. *indicates p<0.05.\nTumor and spleen tissues were processed and multicolor flow cytometry analysis was performed."}, "[2]": {"system": "T cell activation; cytokine induction", "conditions": "cited from earlier work"}, "[3]": {"system": "melanoma in Tyr::creER, BRAF^ca, Pten^lox/lox mice", "assay": "Resiquimod in combination with anti-PD1 therapy in Tyr::creER, BRAFca, Ptenlox/lox mice", "type": "in vivo, mouse", "conditions": "0.2% resiquimod twice a week for 6 weeks; anti-PD1 200 μg i.p. twice a week for 5 weeks", "text": "FIGS. 7A-7G. […] FIG. 7A) Treatment scheme. […] FIG. 7F) Effect of therapies on melanoma growth (n=5 each group). FIG. 7G) Effect of therapies on lymph node metastasis. *indicates p<0.05. **indicates p<0.01. Bars indicate 6 mm."}, "[4]": {"system": "B16-F10 melanoma cells in RAG-1-deficient mice", "assay": "Resiquimod gel in RAG-1-deficient mice with B16-F10 melanoma", "type": "in vivo, mouse", "protocol": "(§1) Once these mice developed palpable tumors, resiquimod treatment was administered twice a week. […] CD8 depletion was achieved using anti-CD8 antibody. […]"}, "[5]": {"assay": "Stability and solubility of resiquimod in ethanol:PBS topical formulation (HPLC)", "type": "physicochemical", "conditions": "50:50 ethanol:pbs topical formulation aged for 2 weeks"}, "[6]": {"system": "B16-F10 melanoma cells in CD8 depleted C57 mice", "assay": "Resiquimod gel in CD8 depleted C57 mice with B16-F10 melanoma", "type": "in vivo, mouse", "protocol": "as §1"}, "[7]": {"system": "melanoma in Tyr::creER, BRAF^ca, Phd2^lox/lox mice", "assay": "Topical resiquimod on melanoma progression in Tyr::creER, BRAFca, Phd2lox/lox mice", "type": "in vivo, mouse", "conditions": "topical 0.2% twice a week for 6 weeks", "text": "FIGS. 2A-2L. […] FIG. 2A) Treatment scheme. FIG. 2B) Large tumor in a mouse treated with vehicle (n=10). FIG. 2C) Underside of skin filled with tumor. FIGS. 2D and 2E) Histology of melanoma in a control mouse. The dermis is filled with tumor cells. […] FIG. 2G) Underside of skin cleared of tumor. FIG. 2H) Histology of skin in a treated mouse, normal appearing. FIG. 2I) Macrophages with pigment are present in the dermis in a treated mouse. Arrow points to macrophages. FIG. 2J)Tumor growth curve. FIG. 2K) In situ melanoma in control mice. Arrows point to the tumor cells in the epidermis and hair follicle. I) Normal appearing epidermis in treated mice. *indicates p<0.05. Bars in b, c, f and g indicate 6 mm. Bars in d, e, h and I, indicate 200 μm. Bars in k and l indicate 10 μm.\nThe Tyr:creER, BRAF^ca, phd2^lox/lox mouse melanoma model was developed in Dr. Xu's lab. Melanoma can be induced with 100% penetrance using topical 4-HT. Lymph node metastasis is frequent in these mice. […] The melanoma in control mice grew and the tumor became very big at day 180 (FIG. 2B). These mice were sacrificed. The underside of skin was occupied completely by tumor (FIG. 2C). Histologically, the dermis was filled entirely by melanoma cells (FIG. 2D and FIG. 2E). […] Histologically, dermal melanoma had regressed (FIG. 2H) and numerous macrophages with pigment were present in the dermis (FIG. 2I), indicating melanoma has regressed. None of the treated mice developed lymph node metastasis."}, "[8]": {"system": "nevus-like pigmented tumors in Tyr::creER, BRAF^ca mice", "assay": "Topical resiquimod gel on pigmented tumor progression in Tyr::creER, BRAFca mice (nevus model)", "type": "in vivo, mouse", "protocol": "FIGS. 1A-1I. […] FIG. 1A) Treatment scheme. […] FIG. 1D) Pigmented lesion in a mouse before treatment. […] FIG. 1F) Histology of tumor treated with vehicle. […] Bars in b-e indicate 6 mm. Bars in f-h indicate 200 μm.\nA majority of nevi and melanomas contain BRAF mutations, particularly the BRAFV600E mutation.\nMice treated with blank topical gel were used as controls. […] Tumor diameters were measured using calipers every three days."}, "T cells from spleen": {"system": "T cells from spleen", "assay": "Cytokine release by T cells from spleen after stimulation", "type": "cell-based, mouse", "conditions": "resiquimod treated T cells from spleen", "protocol": "as §1"}, "[9]": {"system": "B16-F10 melanoma cells in C57BL/6J mice", "assay": "Topical resiquimod gel in the B16 melanoma model", "type": "in vivo, mouse", "text": "FIGS. 5A-5E. […] FIG. 5A) Treatment scheme. […] Arrow points to the inflammatory cells. FIG. 5E) Fold changes in cytokine and chemokine mRNA expression in the tumor tissues from treated mice compared to control mice. *indicates p<0.05. Bars in d indicate 25 μm.\nTumor tissues were processed and we measured cytokine and chemokine mRNA expression in the tumor using qRT-PCR."}, "[10]": {"conditions": "treated 3 weeks, flow cytometry of tumor"}, "[11]": {"conditions": "0.2% resiquimod gel twice a week"}, "[12]": {"conditions": "qRT-PCR, compared to control mice"}}}
{"smiles": "CCOCc1nc2c(N)nc3ccccc3c2n1CC(C)(C)O", "note": "[resiquimod, 1-[4-amino-2-(ethoxymethyl)imidazo[4,5-c]quinolin-1-yl]-2-methylpropan-2-ol]", "values": [{"measurement": "melanoma growth (tumor volume)", "setting": "[1]; resiquimod gel twice a week for 6 weeks vs control vehicle", "result": "significantly slowed melanoma growth"}, {"measurement": "tumor thickness", "setting": "[1]; treated 3 weeks", "result": "significantly thinner tumors"}, {"measurement": "CD45+CD11B+F4/80-Ly6g high MDSCs in the tumor", "setting": "[1]; [10]", "result": "decrease"}, {"measurement": "PD1+CD8+ T cells", "setting": "[1]; [10]", "result": "significantly increased"}, {"measurement": "expression of granzyme B in CD8^- T cells", "setting": "[1]; [10]", "result": "increased"}, {"measurement": "intratumoral CD45+ inflammatory cells", "setting": "[1]; [10]", "result": "significant increase"}, {"measurement": "number of GranB+CD8+ T cells", "setting": "[1]; [10]", "result": "increased"}, {"measurement": "number of GranB+CD8+Ki-67+ T cells", "setting": "[1]; [10]", "result": "increased"}, {"measurement": "mice that developed lymph node metastasis", "setting": "[1]; treated 3 weeks, sacrificed on treatment, control: all 5 mice", "result": "2 of 5"}, {"measurement": "positive lymph nodes per mouse with metastasis", "setting": "[1]; treated 3 weeks, control 2-4 per mouse", "result": 1}, {"measurement": "histology: infiltration of melanoma through skeletal muscle", "setting": "[1]; twice a week for 6 weeks", "result": "did not infiltrate through the skeletal muscle"}, {"measurement": "in situ melanoma in the epidermis", "setting": "[1]; twice a week for 6 weeks", "result": "disappeared after treatment"}, {"measurement": "lifespan (survival) of treated mice", "setting": "[1]; twice a week for 6 weeks", "result": "prolonged the lifespan"}, {"measurement": "induction of IFN-α, TNF-α, IL-1, IL-6, IL-8 and IL-12 compared with imiquimod", "setting": "[2]", "result": "more potent inducer"}, {"measurement": "lymph node metastasis (number of positive lymph nodes)", "setting": "[3]", "result": "significantly reduced"}, {"measurement": "melanoma growth (tumor volume)", "setting": "[3]", "result": "significantly slowed melanoma growth"}, {"measurement": "effect on melanoma growth", "setting": "[4]; RAG-1-deficient mice, resiquimod gel twice a week", "result": "little effect"}, {"measurement": "effect of resiquimod on survival curves", "setting": "[4]; Rag-1-deficient mice", "result": "abolished"}, {"measurement": "solubility in base formulation", "setting": "[5]", "result": "soluble"}, {"measurement": "effect of resiquimod on survival curves", "setting": "[6]; CD8-depleted mice", "result": "abolished"}, {"measurement": "effect on melanoma", "setting": "[6]; CD8 T cell depleted mice (anti-CD8 antibody), resiquimod twice a week", "result": "little effect"}, {"measurement": "histology: dermal melanoma", "setting": "[7]", "result": "regressed"}, {"measurement": "melanoma cells in the epidermis (in situ melanoma)", "setting": "[7]", "result": "disappeared after treatment"}, {"measurement": "treated mice that developed lymph node metastasis", "setting": "[7]", "result": "None"}, {"measurement": "tumor on underside of skin", "setting": "[7]", "result": "significantly less tumors"}, {"measurement": "melanoma growth", "setting": "[7]; started 140 days after induction", "result": "inhibited"}, {"measurement": "pigmented lesion growth (tumor diameter)", "setting": "[8]; 0.2% resiquimod topical gel twice a week for six weeks vs blank gel", "result": "regressed"}, {"measurement": "histology: pigmented tumor cells in the dermis", "setting": "[8]; 0.2% topical gel twice a week for six weeks", "result": "disappeared"}, {"measurement": "pigmented tumor cells in the epidermis", "setting": "[8]; 0.2% topical gel twice a week for six weeks, data not shown", "result": "regressed completely"}, {"measurement": "palpable pigmented lesion after treatment", "setting": "[8]; different experiment, topical resiquimod for 1 month", "result": "disappeared after treatment"}, {"measurement": "expression of IFN-γ by T cells after stimulation", "setting": "T cells from spleen", "result": "increased expression"}, {"measurement": "histology: inflammatory cells in the tumor", "setting": "[9]; [11]", "result": "more inflammatory cells"}, {"measurement": "lifespan (survival) of treated mice", "setting": "[9]; [11]", "result": "prolonged the lifespan"}, {"measurement": "melanoma growth", "setting": "[9]; [11]", "result": "significantly slowed the melanoma growth"}, {"measurement": "CCL2 mRNA expression in the tumor", "setting": "[9]; [12]", "result": "increased"}, {"measurement": "INF-γ mRNA expression in the tumor", "setting": "[9]; [12]", "result": "increased"}, {"measurement": "TNF-α mRNA expression in the tumor", "setting": "[9]; [12]", "result": "increased"}]}
